Test results as given in patent publication US6803195B1, “Facile detection of cancer and cancer risk based on level of coordination between alleles” (Ramot At Tel-Aviv University Ltd., priority 1999, dated 2004).
Several values for one entry are separate records, joined by “and”; a condition that tells them apart may be missing. Identical values can stand only once.

What was measured:
[1] = tested on: CAD samples (hematological malignancy patients at diagnosis); assay: FISH replication assay, cultures of hematological malignancy patients (CAD) with chromatin modifiers (Example 10); type: cell-based, human; conditions: for frequency (%) of SD cells, Mean: N = 10; for replication pattern in cells derived from cancer patients: cultured cells with chromatin modifier
Excerpt: (§1) Cultures were set up from 44 healthy individuals (hereafter called CON) and 20 hematological malignancy patients at diagnosis (hereafter termed CAD). For 20 of the CON samples and all of the CAD samples peripheral in addition to the setting up cultures in the regular growth medium, cultures were set up in medium containing 5-azacytidine (10^−7M; Sigma, USA; hereafter referred to as AZA) a demethylating agent. In addition, cultures from 6 CON and 10 CAD samples were set up in medium containing a deacetylating agents, either Trichostatin A (33 nM; Sigma, USA; hereafter referred to as TSA) or Sodium Butirate (1 nM; Sigma, USA; hereafter referred to as NB), two well described acetylating agents.
(§2) These samples were hybridized with two commercial probes: the AML1 probe (LSI 21, […]) and the α-satellite probe specific for centromere 17 (32-130017, hereafter marked as CEN17). The results are summarized in Table 1 giving the number of samples hybridized with each probe (N), Mean and standard deviation (stdev) as well as the p value obtained using two tailed student's t-test (Microsoft Office 98).

[2] = tested on: CON samples (healthy individuals); assay: FISH replication assay, cultures of healthy individuals (CON) with chromatin modifiers (Example 10); type: cell-based, human; conditions: cultured cells with chromatin modifier
Excerpt: as §1, §2

[3] = tested on: peripheral blood lymphocytes (PBL); assay: FISH replication assay on PBL of healthy donors treated with GCSF; type: in vivo, human; conditions: five days after GCSF treatment; for % SD after GCSF treatment, Average: PBL of healthy donors, n = 6 as printed; for % SD after GCSF treatment: PBL of individual healthy donors
Excerpt: Healthy subjects treated with GCSF. Seven first degree relatives (sibling or parent) of patients suffering from hematological malignancies who were candidates for donating peripheral blood stem cells agreed to participate in the study. PBL were collected before treatment with GCSF and five days after treatment, on the day of collecting cells for transplantation. Six donors were male, one female.
Comparison of synchrony in healthy subjects, cancer patients and GCSF-treated healthy donors. Bone marrow and PBL samples were obtained with informed consent from healthy control subjects and patients as detailed hereinabove. Samples were analyzed by FISH as described hereinabove.
It is believed that the SD cell percentage values are enhanced for a limited time and return to normal after cessation of GCSF treatment. The samples tested here were obtained five days after GCSF treatment. This period is usually chosen for obtaining cells for transplantation, because at the effect of GCSF is maximal five days after administration.

Molecule | frequency (%) of SD cells, Mean ([1]; AML1 locus, CAD + NB (1 nM)) | frequency (%) of SD cells, Mean ([1]; CEN17 locus, CAD + NB (1 nM)) | replication pattern in cells derived from cancer patients [1] | replication pattern observed in normal genomes [2] | frequency (%) of SD cells, Mean ([1]; AML1 locus, CAD + TSA (33 nM)) | frequency (%) of SD cells, Mean ([1]; CEN17 locus, CAD + TSA (33 nM)) | % SD after GCSF treatment, Average ([3]; 21q22 probe (D21S55)) [%] | % SD after GCSF treatment ([3]; 21q22 probe (D21S55)) | % SD after GCSF treatment, Average ([3]; TP53 probe) [%] | % SD after GCSF treatment ([3]; TP53 probe)
CCCC(=O)[O-].[Na+] [NB, Sodium Butirate] | Mean = 23.2% | Mean = 19.6% | attenuate the replication pattern presented in cells derived from cancer patients towards the normal | not affecting |  |  |  |  |  | 
CC(/C=C/C(=O)NO)=C\[C@@H](C)C(=O)c1ccc(N(C)C)cc1 [TSA, Trichostatin A] |  |  | attenuate the replication pattern presented in cells derived from cancer patients towards the normal | not affecting | Mean = 24.2% | Mean = 20.3% |  |  |  | 
GCSF: hematopoietic growth factor given to donors of bone marrow cells to enhance the number of stem cells (protein, UniProt P09919 31-207, looked up) Granulocyte …: TPLGPASSLPQSFLLKCLEQVRKIQGDGAALQEKLVSECATYKLCHPEELVLLGHSLGIPWAPLSSCPSQALQLAGCLSQLHSGLFLYQGLLQALEGISPELGPTLDTLQLDVADFATTIWQQMEELGMAPALQPTQGAMPAFASAFQRRAGGVLVASHLQSFLEVSYRVLRHLAQP |  |  |  |  |  |  | 35.42 | 32% and 43% and 39% (2×) and 31% and 29% and 35% | 36.57 | 34% (2×) and 41% and 38% and 36% (2×) and 37%
